These results are taken from patent publication US20110092505A1, “ORGANIC COMPOUNDS” (priority 2008, published 2011).

For this assay, the target named is T1, protein kinase D3 (PKD3) (Homo sapiens, UniProt O94806).
T1 construct: This assay is performed with full length wild-type enzyme that is purchased from Invitrogen; purchased Invitrogen
T1 sequence (O94806 1-890): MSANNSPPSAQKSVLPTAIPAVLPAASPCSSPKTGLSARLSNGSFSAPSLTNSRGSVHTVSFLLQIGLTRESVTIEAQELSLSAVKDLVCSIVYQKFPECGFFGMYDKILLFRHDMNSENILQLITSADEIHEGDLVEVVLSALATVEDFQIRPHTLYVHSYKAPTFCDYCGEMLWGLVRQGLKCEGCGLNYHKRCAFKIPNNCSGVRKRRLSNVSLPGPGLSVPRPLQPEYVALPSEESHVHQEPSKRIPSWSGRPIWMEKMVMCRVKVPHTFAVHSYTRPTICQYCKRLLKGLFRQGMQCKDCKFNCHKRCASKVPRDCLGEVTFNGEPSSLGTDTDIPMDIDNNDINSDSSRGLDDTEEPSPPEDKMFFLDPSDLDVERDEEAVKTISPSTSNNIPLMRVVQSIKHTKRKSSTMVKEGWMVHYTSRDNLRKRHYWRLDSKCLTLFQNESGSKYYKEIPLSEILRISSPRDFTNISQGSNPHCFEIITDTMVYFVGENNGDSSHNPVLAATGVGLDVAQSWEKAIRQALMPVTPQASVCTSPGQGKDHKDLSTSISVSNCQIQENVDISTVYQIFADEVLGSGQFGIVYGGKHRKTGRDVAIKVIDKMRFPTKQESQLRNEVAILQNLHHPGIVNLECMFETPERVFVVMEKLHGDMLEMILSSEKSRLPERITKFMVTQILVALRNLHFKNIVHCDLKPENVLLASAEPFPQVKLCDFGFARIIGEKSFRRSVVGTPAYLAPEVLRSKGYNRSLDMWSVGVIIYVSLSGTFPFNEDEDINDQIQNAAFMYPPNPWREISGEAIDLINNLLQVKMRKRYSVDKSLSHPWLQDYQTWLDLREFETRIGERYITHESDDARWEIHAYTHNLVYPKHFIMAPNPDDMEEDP
The assay can be described thus: PKD3 TR-FRET (LANCE) kinase assay. It counts as biochemical. To be noted: full length wild-type enzyme, 20 μM ATP, syntide-2 substrate; read-out: Inhibitory Activity PKD3. An excerpt: The assay to measure protein kinase D3 (PKD3) activity is a time-resolved fluorescence resonance transfer (TR-FRET) assay using PerkinElmer's LANCE™ technology. In this case, a biotinylated syntide-2 peptide is used as the substrate in this reaction. Phosphorylation of the syntide-2 substrate is detected by a specific antibody that recognizes the phosphorylated peptide. A second fluorophore, APC, is conjugated to streptavidin that binds the biotinylated syntide-2 peptide. […] Therefore, when the europium labeled secondary antibody binds on the phosphorylated peptide, it is brought into close contact with the APC and excites this fluorophore.
This assay is performed with full length wild-type enzyme that is purchased from Invitrogen. The reaction buffer consists of 35 mM Tris-HCl pH7.5, 5 mM MgCl2, 0.02% Tween-20, 20 μM ATP, 1 mM DTT and 0.2 μg/mL PKD3 enzyme. The enzyme reaction is initiated by the addition of 2 μM syntide-2 peptide substrate and the reaction carried out for 50 minutes at room temperature. The reaction is stopped by a stop/detection buffer consisting of 50 mM EDTA, 0.18 mg/mL rabbit polyclonal anti-phospho Syntide-2 antibody, 0.5 nM europium labeled anti-rabbit IgG and 10 nM streptavidin conjugated APC. After a one hour incubation with the stop/detection buffer, the reaction is read on an Envision 2100 Reader using a LANCE™ Eu/APC dual protocol. […] IC50 values are calculated using an Activity Base (IDBS) software program.
For orientation: Time-resolved FRET reads energy transfer from a long-lived donor to a nearby acceptor.
On to `NC(=O)c1cc(-c2ccnc(NCc3ccccc3Cl)c2)nc(N2CCNCC2)c1` [2′-(2-Chlorobenzylamino-6-piperazin-1-yl-[2,4′]bipyridinyl-4-carboxylic acid amide], for which the IC50 was found to be 31 nM.
Next, `NC(=O)c1cc(-c2ccnc(NC3CCCCC3)c2)nc(N2CCN3CCC[C@@H]3C2)c1` [2′-Cyclohexylamino-6-(R)-hexahydro-pyrrolo[1,2-a]pyrazin-2-yl-[2,4′]bipyridinyl-4-carboxylic acid amide]: 20 nM; `N#CCNC(=O)c1ccc(-c2ccnc(NC3CCCCC3)c2)nc1N1CCNCC1` [2′-Cyclohexylamino-6-piperazin-1-yl-[2,4′]bipyridinyl-5-carbonxylic acid cyanomethyl-amide]: 114 nM; `COC(=O)c1ccc(-c2ccnc(NC3CCCCC3)c2)nc1N1CCNCC1` [2′-Cyclohexylamino-6-piperazin-1-yl-[2,4′]bipyridinyl-5-carboxylic acid methyl ester]: 166 nM.
With `NC(=O)c1cc(-c2ccnc(NCCc3ccc(O)cc3)c2)nc(N2CCNCC2)c1` [2′-[2-(4-Hydroxyphenyl)ethylamino]-6-piperazin-1-yl-[2,4′]bipyridinyl-4-carboxylic acid amide], the IC50 amounted to 2 nM.
Consider `O=C1NCc2c1cc(-c1ccnc(NC3CCCCC3)c1)nc2N1CCn2cnnc2C1` [6-(2-Cyclohexylamino-pyridin-4yl)-4-(5,6-dihydro-8H-[1,2,4]triazolo[4,3-a]pyrazin-7-yl)-2,3-dihydro-pyrrolo[3,4-c]pyridin-1-one], for which the IC50 came to 74 nM.
The result for `c1cc(-c2cc(-c3nnco3)cc(N3CCNCC3)n2)cc(NC2CCCCC2)n1` [Cyclohexyl-(4-[1,3,4]oxadiazol-2-yl-6-piperazin-1-yl-[2,4′]bipyridinyl-2′-yl)-amine] reads 14 nM; that for `CS(=O)(=O)c1cc(-c2ccnc(NC3CCCCC3)c2)nc(N2CCNCC2)c1` [Cyclohexyl-(4-methanesulfonyl-6-piperazin-1-yl-[2,4′]bipyridinyl-2′-yl)-amine], 85 nM.
For the molecule `O=[N+]([O-])c1cc(-c2ccnc(NC3CCCCC3)c2)nc(N2CCNCC2)c1` [Cyclohexyl-(4-nitro-6-piperazin-1-yl-[2,4′]bipyridinyl-2′-yl)-amine], the IC50 was determined as 5 nM.
For the molecule `FC(F)(F)c1cc(-c2ccnc(NC3CCCCC3)c2)nc(N2CCNCC2)c1` [Cyclohexyl-(6-piperazin-1-yl-4-trifluoromethyl-[2,4′]bipyridinyl-2′-yl)amine], the IC50 was 13 nM.
Turning to `Nc1cc(-c2ccnc(NC3CCCCC3)c2)nc(N2CCNCC2)c1` [N*2′*-Cyclohexyl-6-piperazin-1-yl-[2,4′]bipyridinyl-4,2′-diamine], the IC50 is 38 nM.
`Fc1ccc(Nc2cc(-c3ccnc(NC4CCCCC4)c3)nc(N3CCNCC3)c2)cc1` [N*2′*-Cyclohexyl-N*4*-(4-fluoro-phenyl)-6-piperazin-1-yl-[2,4′]bipyridinyl-4,2′-diamine]: the IC50 amounted to 252 nM.
